Results reported in patent US20110092510A1, “DPP-IV INHIBITORS FOR USE IN THE TREATMENT OF NAFLD” (BOEHRINGER INGELHEIM INTERNATIONAL GMBH, priority 2008, published 2011).
Entries after “also recorded” stand apart in the source; their conditions may differ.

How the values were obtained:
[1] = Excretion/elimination of BI 1356 at therapeutic oral dose levels; type: in vivo
[2] = Safety and tolerability in people with type 2 diabetes; type: in vivo

fraction excreted via the kidney [1]: < 7 % of the administered oral dose
Structure (SMILES): CC#CCn1c(N2CCC[C@@H](N)C2)nc2c1c(=O)n(Cc1nc(C)c3ccccc3n1)c(=O)n2C [BI 1356, 1-[(4-methyl-quinazolin-2-yl)methyl]-3-methyl-7-(2-butyn-1-yl)-8-(3-(R)-amino-piperidin-1-yl)-xanthine]
main route of excretion [1]: mainly excreted via the liver; also recorded: primarily excreted unchanged via the bile
safety and tolerability [2]: placebo-like safety and tolerability
